Measurements published in PubChem BioAssay AID435019 (Southern Research Specialized Biocontainment Screening …, 2010).

Test system: mammalian cell viability, cytotoxicity counter-screen
Assay: mammalian cell cytotoxicity, dose response, cytotoxicity control for M. tuberculosis inhibitor project (AID 435019)

| Compound | CC50 [µM] |
| --- | --- |
| CN(C)c1ccnc2c[cH-]cc12.[Fe].c1ccc(-[c-]2[c-](-c3ccccc3)[c-](-c3ccccc3)[c-](-c3ccccc3)[c-]2-c2ccccc2)cc1 (configuration not stated) | 11.8 |
| C[CH2][Hg][S]c1ccccc1C(=O)O | 3.56 |
